How the values were obtained:
[1] = system: sarcoma 180; assay: Translocation of dye-staff to sarcoma 180 (visual); format: in vivo, ICR mouse; conditions: 1000 mg/kg p.o. once
Protocol: On the axillary part of an ICR mouse, 10^6 cells of sarcoma 180 were subcutaneously transplanted. While feeding the both animals, the present substance, Specimen No. 7, was forcibly administered orally once at a rate of 1000 mg/kg on 16th day of the transplantation and an aqueous 2% solution of Lissamine Green (a dye-staff manufactured by Imperial Chem. Ind. Co.) was injected into the caudal vein of the animal at a rate of 1 ml for a rat and 0.5 ml for a mouse.
After one hour of the injection, the animal was sacrificed to extirpate the proliferated tumour. The tumour of the rat was finely cut and homogenized with an aqueous 50% solution of ethanol. After diluting the homogenate with an addition of the solution to a total volume of 50 ml, the liquid was centrifugated for 15 min at 1000 rpm to separate the supernatant liquid. The content of the dye-staff was determined on the supernatant liquid itself or after dilution by spectrophotometry using its absorption maximum of 630 nm.

[2] = system: MH-134 tumor; assay: Preventing the metastasis of a transplanted tumour; format: in vivo, C3H/He mouse; conditions: for Number of metastatic lesion: not administered 4.5
Protocol: Cells of MH-134 tumor were transplanted to a C3 H/He mouse from its caudal vein at a rate of 2×10^6 cells/animal. The present substance, Specimen No. 7, was administered to the mouse respectively, 6, 3 and one hours before, and 1, 3 and 6 hours after the transplantation once at a rate of 1000 mg/kg forcibly p.o.
The mouse was sacrificed on 14th day of the transplantation to extirpate the lungs to examine the number of the metastatic lesion.

[3] = system: spontaneously hypertensive (SHR) male rats; assay: Effect of indomethacin on the hypotensive action; format: in vivo, rat (SHR); conditions: 100 mg/kg p.o.; indomethacin 2.5 mg/kg before and after
Excerpt: It is known that PGs are produced from arachidonic acid, and cyclooxygenase participates in the conversion of arachidonic acid to PGG2, that indomethacin inactivates the above-mentioned cyclooxygenase and further that the […] of PGs is completely stopped by the administration of indomethacin.
Accordingly, the transition of blood pressure of the spontaneously hypertensive (SHR) male rats 30 to 40 weeks after birth was compared in both cases (1) where only the present substance was administered at a rate of 100 mg/kg and (2) where indomethacin was administered 2 times at a rate of 2.5 mg/kg/time before and after the administration of the present substance. The present substance, Specimen No. 7, was dissolved into distilled water or dispersed in an aqueous 2% solution of carboxymethylcellulose, and forcibly administered orally. Indomethacin was dispersed in an aqueous 2% solution of carboxymethylcellulose, and the dispersion was also forcibly administered orally, one hour before and after the administration of the present substance.

[4] = system: HeLa S3 cultured cells of human uterine cancer; assay: PGE in culture medium of human uterine cancer cells; format: cell-based; conditions: for Concentration of PGE after culture: 2 days, control 312; for Change of Concentration of PGE during culture: control +120
Protocol: To each 10 ml of a culture medium prepared by adding 10% bovine foetal serum and one of the present substance, Specimen No. 7, at a concentration of 0 (control), 10, 100, 500, 1,000 or 5,000 μg/ml to Eagle's culture medium and placed in a polystyrene flask of 75 cm^2 in bottom surface, HeLa S3 cultured cells of human uterine cancer were inoculated at a rate of 5×10^5 cells/flask and cultured at 37° C. for 2 days under a mixed atmosphere of 5% by volume of gaseous carbon dioxide and 95% by volume of air. After the incubation was over, the whole cultured medium was centrifugated at a temperature of 4° C. at 1,500 rpm to obtain a supernatant liquid of the cultured medium. The content of PGE in the supernatant liquid was determined by ^3 H-Prostaglandin E Radioimmunoassay Kit.

[5] = system: Ehrlich cancer cells; assay: Cyclic AMP and cyclic GMP in cancer cells of cancer-bearing mouse; format: in vivo, female ICR/JCL mice; conditions: 200 mg/kg/day i.p., 5 days
Protocol: Ehrlich cancer cells were transplanted into the abdominal cavity of female ICR/JCL mice after 5 weeks of birth at a rate of 1×10^6, cells/animal, and while feeding the mice, the present substance, Specimen No. 7, was intraperitoneally administered to the mice every day from the next day of transplantation for 5 days at a rate of 200 mg/kg/day. On the 6th day, the mice were sacrificed with ether to collect each 5 ml of ascites. After adding tetrasodium ethylenediamminetetraacetate into the thus collected ascites, the mixture was centrifugated for 10 min at a temperature of 4° C. and 1,500 rpm to separate the supernatant liquid and the cancer cells. The supernatant liquid was again centrifugated at 4° C. and 3,000 rpm for 15 min. The separated cancer cells were washed with Hank's solution and then subjected to repeated centrifugation for 5 times at 800 rpm for each 5 min to remove impurities such as erythrocytes, etc. After homogenizing 1×10^8 cells of the cancer in 3 ml of an aqueous 6% solution of trichloroacetic acid at a temperature of 0° C., the homogenate was centrifugated for 20 min at 3000XG to obtain a liquid extract. After adding 10% by weight of an aqueous 1 N solution of hydrochloric acid to the liquid extract, it was extracted 5 times with each two times by volume of ether to remove trichloroacetic acid. […]

O=C(O)c1ccc(NC2OC[C@@H](O)[C@H](O)[C@H]2O)cc1 (stereo partly drawn) [Specimen No. 7, Sodium p-aminobenzoate-N--D-xyloside]
sedimentation of the dye-staff in the central part of the tumour (visual) [1]: remarkable sedimentation of the dye-staff in the central part of the tumour
Rate of positive metastasis ([2]; 1000 mg/kg p.o. 1 hour after, printed 7/10): 70%
Rate of positive metastasis ([2]; 1000 mg/kg p.o. 1 hour before, printed 7/9): 77.8%
Rate of positive metastasis ([2]; 1000 mg/kg p.o. 3 hours after, printed 9/10): 90%
Rate of positive metastasis ([2]; 1000 mg/kg p.o. 3 hours before, printed 8/9): 88.9%
Rate of positive metastasis ([2]; 1000 mg/kg p.o. 6 hours after, printed 10/10): 100%
Rate of positive metastasis ([2]; 1000 mg/kg p.o. 6 hours before transplantation, printed 10/10): 100%
Number of metastatic lesion ([2]; 1 hour after): 2.6
Number of metastatic lesion ([2]; 1 hour before): 2.2
Number of metastatic lesion ([2]; 3 hours after): 3.0
Number of metastatic lesion ([2]; 3 hours before): 1.9
Number of metastatic lesion ([2]; 6 hours after): 3.5
Number of metastatic lesion ([2]; 6 hours before): 2.3
hypotensive effect with indomethacin (FIG. 9) [3]: disappeared
Concentration of PGE after culture ([4]; 10 μg/ml): 40 pg/mL
Change of Concentration of PGE during culture ([4]; 10 μg/ml): -152 pg/mL
Concentration of PGE after culture ([4]; 100 μg/ml): 80 pg/mL
Change of Concentration of PGE during culture ([4]; 100 μg/ml): -112 pg/mL
Concentration of PGE after culture ([4]; 500 μg/ml): 48 pg/mL
Change of Concentration of PGE during culture ([4]; 500 μg/ml): -144 pg/mL
Concentration of PGE after culture ([4]; 1000 μg/ml): 25 pg/mL
Change of Concentration of PGE during culture ([4]; 1000 μg/ml): -167 pg/mL
Concentration of PGE after culture ([4]; 5000 μg/ml): 25 pg/mL
Change of Concentration of PGE during culture ([4]; 5000 μg/ml): -167 pg/mL
GMP per 10^8 cancer cells ([5]; control 0.59): 0.72 pM
Cyclic AMP per 10^8 cancer cells ([5]; control 19.5): 21.2 pM

Reference: patent US4440757A, “Pharmaceutical composition comprising derivative of aminobenzoic acid for regulating prostaglandin” (priority 1978, dated 1984)
